Source: patent publication US8304447B2, “2-acylaminopropoanol-type glucosylceramide synthase inhibitors” (Genzyme Corporation, priority 2007, dated 2012)
pIC50: −log10 of the molar value.

Tested on: GM3
Experiment: GM3 Elisa assay
Type: cell-based
Conditions: 48 h, Table 1; B16-FO cells, 2 days incubation; read-out: IC50_uM_Mean
Experimental: B16-FO cells from ATCC (American Tissue Culture Collection) were grown in DMEM media (ATCC) with 10% Fetal Bovine Serum (Hyclone) and Pen/Step/Glutamine (Biowhittaker). 4000 cells per well were plated on collagen coated plates (BD) and allowed to attach for 6 hours in an incubator (37 degrees, 5% CO2). After 6 hours the compounds and controls were added to the wells, the plates mixed and returned to the incubator for 2 days. Day of assay the cells were fixed for 20 minutes with 1% formaldehyde and then washed with Tris Buffered Saline (TBS) 3 times, 150 μl of TBS was left in the wells and 50 μl of goat serum (Invitrogen) was added, the plates mixed and incubated for 1 hour at room temperature. The plates were flicked and the cells incubated with the monoclonal Antibody to GM3 (NeuAc) (Cosmo) for 45 minutes as room temperature. The plates were then washed 3 times with TBS, leaving 150 μl of TBS in the wells and Peroxidase AffinPure F (ab′) 2 frag Gt Anti-mouse IgM, μ Chain Specific (Jackson Immuno Research) was added in 50 μl, the plates mixed and incubated for 45 minutes at room temperature. The plates were washed 3 times with TBS, flicked and blotted and 100 μl of Quantablu (Pierce) was added to the wells and incubated for 1 hour then read on a Fluorometer at Ex 325 and Em 420. The data was then analyzed using standard programs.

| Compound | pIC50 |
| --- | --- |
| O=C(NCc1ccccc1)N[C@H](CN1CCCC1)[C@H](O)c1ccc2c(c1)OCCO2 [Compound 6, 1-benzyl-3-((1R,2R)-1-(2,3-dihydrobenzo[β][1,4]dioxin-6-yl)-1-hydroxy-3-(pyrrolidin-1-yl)propan-2-yl)urea] | 6.00 to 7.00 |
| O=C(Nc1ccc(C(F)(F)F)cc1)N[C@H](CN1CCCC1)[C@H](O)c1ccc2c(c1)OCCO2 [Compound 81, 1-((1R,2R)-1-(2,3-dihydrobenzo[β][1,4]dioxin-6-yl)-1-hydroxy-3-(pyrrolidin-1-yl)propan-2-yl)-3-(4-(trifluoromethyl)phenyl)urea] | 6.00 to 7.00 |
| O=C(CCOc1ccccc1F)N[C@H](CN1CCCC1)[C@H](O)c1ccc2c(c1)OCCO2 [Compound 60, N-((1R,2R)-1-(2,3-dihydrobenzo[β][1,4]dioxin-6-yl)-1-hydroxy-3-(pyrrolidin-1-yl)propan-2-yl)-3-(2-fluorophenoxy)propanamide] | ≥ 7.00 |
| O=C(Nc1cccc(C(F)(F)F)c1)N[C@H](CN1CCCC1)[C@H](O)c1ccc2c(c1)OCCO2 [Compound 68, 1-((1R,2R)-1-(2,3-dihydrobenzo[β][1,4]dioxin-6-yl)-1-hydroxy-3-(pyrrolidin-1-yl)propan-2-yl)-3-(3-(trifluoromethyl)phenyl)urea] | 6.00 to 7.00 |
| O=C(CSCc1ccccc1)N[C@H](CN1CCCC1)[C@H](O)c1ccc2c(c1)OCCO2 [Compound 39, 2-(benzylthio)-N-((1R,2R)-1-(2,3-dihydrobenzo[β][1,4]dioxin-6-yl)-1-hydroxy-3-(pyrrolidin-1-yl)propan-2-yl)acetamide] | ≥ 7.00 |
| Cc1ccc(CNC(=O)N[C@H](CN2CCCC2)[C@H](O)c2ccc3c(c2)OCCO3)cc1 [Compound 42, 1-((1R,2R)-1-(2,3-dihydrobenzo[β][1,4]dioxin-6-yl)-1-hydroxy-3-(pyrrolidin-1-yl)propan-2-yl)-3-(4-methylbenzyl)urea] | ≥ 7.00 |
| COc1ccc(OCCCC(=O)N[C@H](CN2CCCC2)[C@H](O)c2ccc3c(c2)OCCO3)cc1 [Compound 197, N-((1R,2R)-1-(2,3-dihydrobenzo[β][1,4]dioxin-6-yl)-1-hydroxy-3-(pyrrolidin-1-yl)propan-2-yl)-4-(4-methoxyphenoxy)butanamide (2S,3S)-2,3-dihydroxysuccinate] | ≥ 7.00 |

Same assay, conditions: 48 h, Table 2; B16-FO cells, 2 days incubation; read-out: IC50_uM_Mean

| Compound | pIC50 |
| --- | --- |
| O=C(N[C@H](CN1CCCC1)[C@H](OC(=O)c1ccc(-c2ccccn2)s1)c1ccc2c(c1)OCCO2)c1ccc(-c2ccccn2)s1 [Compound 242] | 5.00 to 5.52 |
| COc1ccc(C(=O)CCCC(=O)N[C@H](CN2CCCC2)[C@H](O)c2ccc3c(c2)OCCO3)cc1OC [Compound 282, N-((1R,2R)-1-(2,3-dihydrobenzo[β][1,4]dioxin-6-yl)-1-hydroxy-3-(pyrrolidin-1-yl)propan-2-yl)-5-(3,4-dimethoxyphenyl)-5-oxopentanamide] | 5.52 to 6.00 |

Same assay, conditions: Table 1; B16-FO cells, 2 days incubation; read-out: IC50_uM_Mean

| Compound | pIC50 |
| --- | --- |
| O=C(CCC(=O)c1ccc(C(F)(F)F)cc1)N[C@H](CN1CCCC1)[C@H](O)c1ccc2c(c1)OCCO2 [Compound 176, N-((1R,2R)-1-(2,3-dihydrobenzo[β][1,4]dioxin-6-yl)-1-hydroxy-3-(pyrrolidin-1-yl)propan-2-yl)-4-oxo-4-(4-(trifluoromethyl)phenyl)butanamide (2S,3S)-2,3-dihydroxysuccinate] | ≥ 7.00 |

Same assay, conditions: Table 3 (IC 50 Values); B16-FO cells; read-out: IC50_uM_Mean

| Compound | pIC50 |
| --- | --- |
| CCCCCCCC(=O)N[C@H](CN1CCC(C)CC1)[C@H](O)c1ccc2c(c1)OCCO2 [Compound 611] | 5.00 to 5.52 |
| CCCCNC[C@@H](NC(=O)CCCCCC(=O)c1ccc(OC)cc1)C(O)c1ccc2c(c1)OCCO2 (stereo partly shown) [Compound 462] | 5.52 to 6.00 |
| COc1ccc(C(=O)CCCCC(=O)N[C@H](CN2CCCC2)[C@H](O)c2ccc(OCc3ccccc3)cc2)cc1 [Compound 706] | ≥ 7.00 |
| CCCCCCCC(=O)N[C@H](CN1C(C)CCCC1C)[C@H](O)c1ccc2c(c1)OCCO2 (stereo partly shown) [Compound 595] | 5.00 to 5.52 |
| O=C(CCCCC(=O)c1ccc(F)cc1)N[C@H](CN1CC[C@H](O)C1)[C@H](O)c1ccc2c(c1)OCCO2 [Compound 654] | 5.52 to 6.00 |
| O=C(CCCCC(=O)C1CCC(F)(F)CC1)N[C@H](CN1CC[C@@H](F)C1)[C@H](O)c1ccc(OCc2ccccc2)cc1 [Compound 573] | 6.00 to 7.00 |
| O=C(Cc1ccc(OC(F)(F)F)cc1)N[C@H](CN1CCCC1)[C@H](O)c1ccc(OCc2ccccc2)cc1 [Compound 702] | ≥ 7.00 |
| COc1ccc(C(=O)CCCCCC(=O)N[C@H](CN2CCCC2)C(O)C2CCCCC2)cc1 (stereo partly shown) [Compound 471] | 5.52 to 6.00 |
| COc1ccc(C(=O)CCCCC(=O)N(Cc2ccc(OC(F)F)cc2)[C@H](CN2CCCC2)[C@H](O)c2ccc(O)cc2)cc1 [Compound 427] | 5.00 to 5.52 |
| O=C(CCCCOC1CCOCC1)N[C@H](CN1CCCC1)[C@H](O)c1ccc2c(c1)OCCO2 [Compound 554] | 5.00 to 5.52 |
| O=C(Cc1ccc(OC(F)(F)F)cc1)N[C@H](CN1CCCC1)[C@H](O)c1ccc2c(c1)OC(F)(F)C(F)(F)O2 [Compound 398] | 5.00 to 5.52 |
| COc1ccc(C(=O)CCCCC(=O)N[C@H](CN2CCCC2)[C@H](O)c2ccc(OCCOc3ccccc3F)cc2)cc1 [Compound 366] | ≥ 7.00 |
| CCCCCCCCCCCCCCCC(=O)N[C@H](CNCc1ccco1)[C@H](O)c1ccc2c(c1)OCCO2 [Compound 679] | 5.00 to 5.52 |
| COc1ccc(C(=O)CCCCC(=O)N[C@H](CN2CCCC2)[C@H](O)c2ccc(OC)c(Cl)c2)cc1 [Compound 709] | ≥ 7.00 |
| CCCCOc1ccc(CC(CN2CCCC2)NC(=O)CCCCC(=O)c2ccc(OC)cc2)cc1 (stereo not shown) [Compound 589] | 5.52 to 6.00 |
| COc1ccc(OCCC(=O)N[C@H](CN2CC[C@@H](O)C2)[C@H](O)c2ccc3c(c2)OCCO3)cc1 [Compound 513] | 5.00 to 5.52 |
| O=C(Cc1ccc(OC(F)(F)F)cc1)N[C@H](CN1CCCC1)[C@H](O)c1ccc(C(F)(F)F)cc1 [Compound 487] | 5.00 to 5.52 |
| COc1ccc(C(=O)CCCCCC(=O)N[C@H](CN2CCCC2)[C@H](O)c2ccc(OC(F)(F)F)cc2)cc1 [Compound 666] | 6.00 to 7.00 |
| O=C(CCCCCS(=O)(=O)C1CCCCC1)N[C@H](CN1CC[C@@H](F)C1)[C@H](O)c1ccc(OCc2ccccc2)cc1 [Compound 578] | ≥ 7.00 |
| COc1ccc(C(=O)CCCCCC(=O)N[C@H](CN2CCCC2(C)C)[C@H](O)c2ccc3c(c2)OCCO3)cc1 [Compound 552] | 5.52 to 6.00 |

| Compound | pIC50 |
| --- | --- |
| COc1ccc(C(=O)CCCCCC(=O)N[C@H](CN2C3CCC2CC3)[C@H](O)c2ccc3c(c2)OCCO3)cc1 [Compound 522] | ≥ 7.00 |
| O=C(CCCCC(=O)c1ccc(F)cc1)N[C@H](CN1C2CCC1CC2)[C@H](O)c1ccc2c(c1)OCCO2 [Compound 476] | 6.00 to 7.00 |
| COc1ccc(C(=O)CCCCC(=O)N[C@H](CN2CCCC2)[C@H](O)c2ccc(OC[C@H](C)CO)cc2)cc1 [Compound 439] | 6.00 to 7.00 |
| CCCCOc1ccc([C@@H](O)[C@@H](CN2CC[C@H](O)C2)NC(=O)CCCCC(=O)C2CCCCC2)cc1 [Compound 587] | 6.00 to 7.00 |
| COc1ccc(CNC(=O)N[C@H](CN2CC[C@H](O)C2)[C@H](O)c2ccc(OCCCCF)cc2)cc1 [Compound 498] | ≥ 7.00 |
| COc1ccc(C(=O)CCCCC(=O)N(CC(=O)c2ccc(OC)cc2)[C@H](CN2CCCC2)[C@H](O)c2ccc(O)cc2)cc1 [Compound 424] | 5.00 to 5.52 |
| COCCc1ccc([C@@H](O)[C@@H](CN2CCCC2)NC(=O)Cc2ccc(OC(F)(F)F)cc2)cc1 [Compound 354] | 6.00 to 7.00 |
| CCCCCCOc1ccc([C@@H](O)[C@@H](CN2CC[C@@H](F)C2)NC(=O)CCCCCC(=O)c2ccc(OC)cc2)cc1 [Compound 371] | ≥ 7.00 |
| CCCCCCOc1ccc([C@@H](O)[C@@H](CN2CC[C@H](O)C2)NC(=O)CCOc2ccc(Cl)cc2)cc1 [Compound 729] | ≥ 7.00 |
| COc1ccc(C(=O)CCCCCC(=O)N[C@H](CN2CCC[C@H]2C)[C@@H](O)c2ccc3c(c2)OCCO3)cc1 [Compound 529] | ≥ 7.00 |
| COc1ccc(OCCC(=O)N(Cc2cccc(-c3noc(C)n3)c2)[C@H](CN2CCCC2)[C@H](O)c2ccc(O)cc2)cc1 [Compound 718] | 5.00 to 5.52 |
| CCCCCCCC(=O)N[C@H](CN1CCCC1)[C@H](O)c1ccc(OC(F)(F)F)cc1 [Compound 667] | 6.00 to 7.00 |
| O=C(CCCCCC(F)(F)C(F)(F)F)N[C@H](CN1CCCC1)[C@H](O)c1ccc2c(c1)OCCO2 [Compound 621] | 5.52 to 6.00 |
| O=C(Cc1ccc(OC(F)(F)F)cc1)NC(CN1CCCC1)[C@H](O)c1ccc(Cl)s1 (stereo partly shown) [Compound 492] | 5.00 to 5.52 |
| O=C(CCCOc1ccc(F)cc1)N[C@H](CN1CC[C@@H](F)C1)[C@H](O)c1ccc2c(c1)OCCO2 [Compound 567] | 6.00 to 7.00 |
| CCCCOc1ccc([C@@H](O)[C@@H](CN2CC[C@@H](F)C2)NC(=O)CCCCC(=O)C2CCCCC2)cc1 [Compound 585] | 6.00 to 7.00 |
| COc1ccc(OCCC(=O)N[C@H](CN2CC[C@H](O)C2)[C@H](O)c2ccc(OCCCCF)cc2)cc1 [Compound 502] | ≥ 7.00 |
| COc1ccc(OCCC(=O)N[C@H](CN2CCCC2)[C@H](O)c2ccc3c(c2)OC(F)(F)O3)cc1 [Compound 407] | 5.52 to 6.00 |
| COc1ccc(OCCC(=O)N[C@H](CN2CCCC2)[C@@H](O)c2ccc3c(c2)OCCO3)cc1 [Compound 676] | 5.00 to 5.52 |
